The values below come from US20030229114A1, “Pyrroloquinoline quinone drugs as a neuroprotectant and methods of use thereof” (priority 2002, published 2003).

“And” between values parts separate entries of the source, which are not always exact repeats. Equal entries are not always repeated. “Also recorded” adds a separate entry of the source. Where two headings read alike, the source gives them in different places.

Assay [1] is described as follows: Assay of H2O2 produced by the reaction of SIN-1 with SOD or PQQ. The assay is classed as biochemical. As to conditions: data not shown. How it is done:
The method described by Yakes and Van Houten (1997) was used, exploiting the oxidation of o-diansidine dihydrochloride (o-DD, Sigma D-3252) in the presence of horseradish peroxidase (Sigma P-8250). Briefly, SIN-1 (1 mM) was incubated with SOD (100 units/ml) or PQQ (100 μM) in the absence or presence of catalase (100 units/ml) in EBSS for various times. Then o-DD was added to a final concentration of 250 μM and 2.5 units/ml horseradish peroxidase were added. After 1 hr incubation at 37° C., the absorbance at 470 nm was measured. The concentration of H2O2 in samples was calculated based on a standard curve obtained by the reaction of various concentrations of H2O2 with o-DD and horseradish peroxidase.

The conditions of assay [2]: ESR, in vitro; Urakami et al (1997); read-out: IC50 in scavenging superoxide; cited from earlier work.
The test system of assay [3] is cultured rat forebrain neurons. Kind of assay: Survival assay of neuronal cultures (Alamar Blue reduction, 24 hr). As to conditions: for EC50: Rattus norvegicus, Neuron, read-out: EC50 of the protective effect against SIN-1 toxicity, SIN-1 1 mM. How it is done: Neuronal cultures were prepared from embryonic day 16 Sprague Dawley rat fetuses using methods similar to those previously described (Dichter, 1978) but modified to produce cultures that contained <1% astrocytes (Rosenberg and Aizenman, 1989; Rosenberg, 1991; Rosenberg et al., 1992; Wang et al., 1998). Cultures were initially plated on poly-L-lysine-coated 24-well plastic plates (Costar, Cambridge, Mass.) using an 80:10:10 (v/v) mixture ofDMEM (Life Technologies 11960-010), Ham's F-12 (Sigma, N-4888), heat-inactivated iron-supplemented calf serum (Hyclone A2151), containing 2 mM glutamine, 25 mM HEPES, 24 U/ml penicillin, and 24 μg/ml streptomycin and maintained in a 5% CO2 (balance air) incubator at 36° C. Cell proliferation was inhibited by exposure to 5 μM cytosine arabinoside at 24 hr in vitro for 72 hr. On the fourth day of culture, the medium was completely removed and replaced with 90% MEM, 10% Nuserum IV (Collaborative Research), 2 mM glutamine, 5 mM HEPES, containing 50 units/ml superoxide dismutase (Boehringer Mannheim, Indianapolis, Ind.), 20 units/ml catalase (Sigma CV-40), total glucose 11 mM, and total sodium bicarbonate 9.3 mM, plus 2% B27 supplement (Life Technologies 17504-036). Medium was not subsequently changed. To prevent evaporation of water, culture dishes were kept in wet dishes containing filter paper that was always kept wet.
In all experiments, 24-well plates were first washed three times in Hank's balanced salt solution (HBSS) containing 0.1% bovine serum albumin (BSA), and then they were placed in Earle's balanced salt solution (EBSS, which is composed of 116 mM NaCl, 5.4 mM KCl, 1.8 mM CaCl2, 0.8 mM MgSO4, 26 mM NaHCO3, 1 mM NaH2PO4 and 5.5 mM D-glucose). Experiments were carried out exclusively in EBSS. […] PQQ was directly dissolved in EBSS.
Survival of cells was determined after 24 hr exposure to the test compounds by assessing the ability of cultures to reduce Alamar Blue (Trek Diagnostic Systems, Inc., Westlake, Ohio) as an index of viability (McGahon et al., 1995). Details of this procedure have been provided elsewhere (Back et al., 1998, 1999). In brief, the test medium was removed after 24 hr, and then replaced with EBSS plus a 1:100 dilution of Alamar Blue. After 2 hr exposure, the medium was diluted 50-fold with water, and the fluorescence intensity was determined in a Hitachi fluorescence spectrophotometer using an excitation wavelength of 530 nm and an emission wavelength of 590 nm. The photomultiplier voltage was set at 700 V. In some experiments, the cell viability determined by Alamar Blue was compared to that determined by the assay of lactate dehydrogenase (LDH) release (Koh and Choi, 1987).

Assay [4] has as its system BSA. Kind of assay: Western blot of BSA tyrosine nitration, cell-free (anti-nitrotyrosine antibody). The assay is classed as biochemical, bovine. To be noted: 1 hr. How it is done:
BSA (0.5 mg/ml) in EBSS with or without PQQ was exposed to SIN-1 or peroxynitrite for 1 hr, and then 4× sample buffer (40% glycerol, 20% β-mercaptoethanol, 0.004% bromophenol blue, 6.4% SDS, 25% 1M Tris-HCl, pH 6.8) was added. After the samples were heated for 5 min, 2 μg protein per lane was subjected to SDS-PAGE analysis, followed by transfer to PVDF membrane (NEN Life Science, Boston, Mass.) and reacted with a mouse anti-nitrotyrosine monoclonal antibody (Upstate Biotechnology). Proteins were visualized with horseradish peroxidase-conjugated sheep anti-mouse immunoglobulin G (IgG) followed by detection with enhanced chemiluminescence.
A general note: In western blotting, separated proteins are transferred to a membrane and probed.

Assay [5] relates to Oligodendrocytes. Kind of assay: In vitro white matter injury assay: SIN-1 toxicity in oligodendrocytes. It is filed as cell-based. As to conditions: PQQ 100 μM; SIN-1 0.25-2 mM, 2 hr; examined at 24 hr. Here is the method: Oligodendrocytes were exposed to various concentrations of SIN-1 (0, 0.25, 0.5, 1 and 2 mM) in EBSS for 2 hr with or without PQQ (100 μM), then washed with HBSS containing 0.1% BSA for 2 times. Oligodendrocytes were then returned to the culture medium. The neurotoxicity was examined at 24 hr.
To illustrate the neuroprotective benefits of the invention, PQQ was used to show oligodendrocytes protection from cell toxicity in an in vitro white matter injury assay. Oligodendrocytes were exposed to various concentrations of SIN-1 (0, 0.25, 0.5, 1 and 2 mM) in EBSS for 2 hr with or without PQQ (100 μM), then washed with HBSS containing 0.1% BSA for 2 times. Oligodendrocytes were then returned to the culture medium. The neurotoxicity was examined at 24 hr.

Assay [6] deals with cultured rat forebrain neurons. Kind of assay: Measurement of intracellular cGMP in neuronal cultures (enzyme-linked immunoassay). It is filed as cell-based. Here is the method:
Medium was not subsequently changed.
Intracellular cGMP was assayed by enzyme-linked immunoassay (Amersham). Cultures were washed three times, and then medium was replaced by EBSS with or without PQQ or SOD. The non-specific phosphodiesterase inhibitor, 3-isobutyl-1-methylxanthine (IBMX) at 100 μM was present in all conditions. DEA/NO, SIN-1 and peroxynitrite were added for 5 min, and then the medium was replaced with 200 μl of releasing reagent provided in the kit. The plates were agitated for 20 min at room temperature, and 20 μl of acetylation reagent was added. After 5 min, 50 μl samples were taken for assay.

[7] abbreviates: ONOO− 100 μM in the presence of PQQ 100 μM.

Take `O=C(O)c1cc(C(=O)O)c2c(n1)C(=O)C(=O)c1cc(C(=O)O)[nH]c1-2` [PQQ, Pyrroloquinoline quinone]: the “Effect on oxidation of o-diansidine by H2O2” value in assay [1] was “did not reduce”. In addition, the IC50 (as a rule, the concentration that inhibits the measured activity by half) in assay [2] was 0.038 µM. In addition, the “Effect on neurotoxicity induced by NMDA plus DETA/NO” value was “fully blocked; also recorded: block” in assay [3] (24 hr exposure, PQQ 100 μM) and “completely blocked; also recorded: blocks” in assay [3] (four hour exposure, PQQ 100 μM, NMDA 20 μM, DETA/NO 300 μM). Also, the Neuronal survival in assay [3] (DEA/NO 1 mM in the presence of PQQ 100 μM) is reported as 39.7±16.8 % of control; in assay [3] (DETA/NO 1 mM in the presence of PQQ 100 μM), 30.7±7.7 % of control; in assay [3] (DPT/NO 1 mM in the presence of PQQ 100 μM) it was 1.7±0.7 % of control. For the same compound, in assay [3] (setting [7]), the “Cell (neuronal) survival” value was 11±6% and 11±8%. Further, the “Effect on neurotoxicity caused by nitric oxide donors” value in assay [3] (PQQ 100 μM, DEA/NO, DPT/NO, DETA/NO 1 mM) is on record as “nor did it prevent cell death; also recorded: no protective effect”. Also, in assay [3] (PQQ 100 μM, ONOO− 100 μM), the “Effect on neurotoxicity induced by ONOO− (peroxynitrite)” value is “potentiated; also recorded: significantly potentiates”. Further, the “Effect on neurotoxicity induced by SIN-1” value in assay [3] (PQQ 100 μM, SIN-1 1 mM, no catalase) is reported as “completely protected; also recorded: completely blocks”. In addition, the concentration for a half-maximal effect (EC50) (as a rule, the concentration that produces a half-maximal response) in assay [3] (representative experiment FIG. 2B) amounted to 22.6 µM; in assay [3] (three experiments), 15 ± 8.4 µM. Besides, in assay [4] (ONOO− 100 μM, PQQ 100-500 μM), the “Effect on BSA nitration caused by ONOO−” value is given as “potentiated; also recorded: increased”. The “Effect on BSA nitration caused by SIN-1” value in assay [4] (SIN-1 1 mM, PQQ 100 μM, 300 μM or 500 μM) is on record as “completely blocked”. Besides, in assay [5], the “Effect on oligodendrocyte death induced by SIN-1” value is recorded as “completely blocked”. The “Intracellular cGMP content” value in assay [6] (DEA/NO 10 μM in the presence of PQQ 100 μM) was 255±38 % of control; in assay [6] (setting [7]) it was 142.5±16.2 % of control; in assay [6] (SIN-1 100 μM in the presence of PQQ 100 μM), 267±19.5 % of control and 313.5±45 % of control. Also, in assay [6] (PQQ 100 μM, DEA/NO 10 μM), the “Effect on cGMP levels in the presence of DEA/NO” value is on record as “did not significantly alter”. For the same compound, the “Effect on cGMP accumulation induced by SIN-1” value in assay [6] (PQQ 100 μM, SIN-1 100 μM) is recorded as “potentiated; also recorded: enhanced”.
